The record followed here is patent US9006487B2, “Amine-containing lipids and uses thereof” (Massachusetts Institute of Technology, priority 2005, dated 2015).

The nature of assay [1]: DNA delivery: raw luciferase expression (relative light units) of best-transfecting lipids. The format is cell-based. The following applies: 300 ng of DNA per well. As for the experimental part: Raw values for luciferase expression (relative lights units) of best-transfecting lipids at lipid/DNA (w/w) ratios listed. 300 ng of DNA was added per well.
Assay [2] concerns cos-7 cells. The assay can be described thus: DNA transfection: luciferase expression relative to Lipofectamine 2000. In kind it is cell-based. The following applies: for Luciferase expression as a percentage of that achieved using Lipofectamine 2000: 300 ng Luciferase DNA per well, luciferase assay after 48 hours; for luciferase expression (second part of table, values relative to LIPO2000): 300 ng of DNA per well. The gist of the method:
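cos-7 cells were transfected with 300 ng/well luciferase DNA complexed with lipid at ratios from 2.5 to 25 w/w. Bright-Glo luminescence was read after 48 hours and converted to ng luciferase by standard curve. Data are percent of the Lipofectamine 2000 control (2.5 w/w).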

Several values for one entry are separate records, joined by “and”; a condition that tells them apart may be missing. Equal entries are not always repeated.

For the molecule `CCCCCCCCCCCCCCCCNC(=O)CCN(CCC(=O)NCCCCCCCCCCCCCCCC)CCN(CCO)CCO` [NP86], the “Raw values for luciferase expression” value came out at 595340 relative lights units in assay [1] (lipid/DNA 10 w/w) and 1323915 relative lights units in assay [1] (lipid/DNA 15 w/w).

Consider `CCCCCCCCCCCCCCNC(=O)CCN(CCCN1CCOCC1)CCC(=O)NCCCCCCCCCCCCCC` [NF91], for which the entries for the “Raw values for luciferase expression” value in assay [1] (lipid/DNA 2.5 w/w) and in assay [1] (lipid/DNA 5 w/w) were 1993690 relative lights units and 1670695 relative lights units, respectively.

Regarding `CCCCCCCCCCCCCCCNC(=O)CCN(CC)CCN(CC)CCC(=O)NCCCCCCCCCCCCCCC` [NG61], the figures for the “Raw values for luciferase expression” value in assay [1] (lipid/DNA 2.5 w/w) and in assay [1] (lipid/DNA 5 w/w) were 1452027 relative lights units and 765795 relative lights units, respectively.

For `CCCCCCCCCCCCCCCCNC(=O)CCN(CCN(CCC(=O)NCCCCCCCCCCCCCCCC)C(C)C)C(C)C` [NP62], the “Raw values for luciferase expression” value in assay [1] (lipid/DNA 2.5 w/w) is reported as 1443678 relative lights units; in assay [1] (lipid/DNA 5 w/w), 33188 relative lights units.

Consider `CCCCCCCCCCCCOC(=O)CCN1CCCN(CCC(=O)OCCCCCCCCCCCC)CC1` [LD70], for which the “Luciferase expression as a percentage of that achieved using Lipofectamine 2000” value (shortened to “Luciferase expression as a percentage”) came to 0.1% in assay [2] (lipid/DNA 2.5 w/w); 0.1% in assay [2] (lipid/DNA 5 w/w); 0.6% in assay [2] (lipid/DNA 10 w/w); 0.6% in assay [2] (lipid/DNA 15 w/w); 0.6% in assay [2] (lipid/DNA 20 w/w); 0.6% in assay [2] (lipid/DNA 25 w/w).

In the case of `CCCCCCCCCCCCOC(=O)CCN(CCCN(CCO)CCO)CCC(=O)OCCCCCCCCCCCC` [LD87], the figures for the “Luciferase expression as a percentage” value in assay [2] (lipid/DNA 10 w/w) and in assay [2] (lipid/DNA 15 w/w) were 53.9% and 43.3%, respectively. Besides, the “luciferase expression (second part of table, values relative to LIPO2000)” value is 53.9 in assay [2] (lipid/DNA 10 w/w) and 43.3 in assay [2] (lipid/DNA 15 w/w).

Turning to `CCCCCCCCCCCCOC(=O)CCN(C)CCN(CCC(=O)OCCCCCCCCCCCC)CCC(=O)OCCCCCCCCCCCC` [LD95], the “Luciferase expression as a percentage” value was 1.2% in assay [2] (lipid/DNA 2.5 w/w); 19.5% in assay [2] (lipid/DNA 5 w/w); 3.6% in assay [2] (lipid/DNA 10 w/w); 9.1% in assay [2] (lipid/DNA 15 w/w); 9.4% in assay [2] (lipid/DNA 20 w/w); 5.9% in assay [2] (lipid/DNA 25 w/w).

For the molecule `CCCCCCCCCCCCCCOC(=O)CC[N+](C)(CCC(=O)OCCCCCCCCCCCCCC)CC1COC(C)(C)O1.[I-]` (stereo not drawn) [QF7], the “Luciferase expression as a percentage” value in assay [2] (lipid/DNA 2.5 w/w), in assay [2] (lipid/DNA 5 w/w), in assay [2] (lipid/DNA 10 w/w), in assay [2] (lipid/DNA 15 w/w), in assay [2] (lipid/DNA 20 w/w) and in assay [2] (lipid/DNA 25 w/w) was 0.0% in each case.

Turning to `CCCCCCCCCCOC(=O)CC[N+](C)(CCC(=O)OCCCCCCCCCC)CCC1OCCO1.[I-]` [QB6], the “Luciferase expression as a percentage” value in assay [2] (lipid/DNA 2.5 w/w), in assay [2] (lipid/DNA 5 w/w), in assay [2] (lipid/DNA 10 w/w), in assay [2] (lipid/DNA 15 w/w), in assay [2] (lipid/DNA 20 w/w) and in assay [2] (lipid/DNA 25 w/w) was 0.0% throughout.

Turning to `CCCCCCCCCCCCCCCCCCOC(=O)CCN(CCC(=O)OCCCCCCCCCCCCCCCCCC)CC1CCCO1` (stereo not drawn) [LH15], the “Luciferase expression as a percentage” value in assay [2] (lipid/DNA 2.5 w/w), in assay [2] (lipid/DNA 5 w/w), in assay [2] (lipid/DNA 10 w/w), in assay [2] (lipid/DNA 15 w/w), in assay [2] (lipid/DNA 20 w/w) and in assay [2] (lipid/DNA 25 w/w) was 0.0% throughout.

`CCCCCCCCCCOC(=O)CCN(CC)CCCN(CC)CCC(=O)OCCCCCCCCCC` [LB64]: the “Luciferase expression as a percentage” value in assay [2] (lipid/DNA 2.5 w/w) is 0.1%; in assay [2] (lipid/DNA 5 w/w), 0.1%; in assay [2] (lipid/DNA 10 w/w), 0.2% and 0.1%; in assay [2] (lipid/DNA 15 w/w), 0.1%; in assay [2] (lipid/DNA 20 w/w), 0.1%; in assay [2] (lipid/DNA 25 w/w) it was 0.2% and 0.1%.

Turning to `CCCCCCCCCCCCCCOC(=O)CCN(CCC(=O)OCCCCCCCCCCCCCC)C[C@@H](C)O` [LF21], the “Luciferase expression as a percentage” value in assay [2] (lipid/DNA 2.5 w/w), in assay [2] (lipid/DNA 5 w/w), in assay [2] (lipid/DNA 10 w/w), in assay [2] (lipid/DNA 15 w/w), in assay [2] (lipid/DNA 20 w/w) and in assay [2] (lipid/DNA 25 w/w) was 0.4% throughout.

As for `CCCCCCCCCCCCOC(=O)CCN(CCC(=O)OCCCCCCCCCCCC)CCN1CCCC1` [LD76], the “Luciferase expression as a percentage” value in assay [2] (lipid/DNA 2.5 w/w) came to 0.1%; in assay [2] (lipid/DNA 5 w/w) it was 0.1%; in assay [2] (lipid/DNA 10 w/w) it was 0.2%; in assay [2] (lipid/DNA 15 w/w) it was 0.3%; in assay [2] (lipid/DNA 20 w/w), 0.2%; in assay [2] (lipid/DNA 25 w/w) it was 0.4%.

Regarding `CCCCCCCCCCCCCCCOC(=O)CCN(CCC(=O)OCCCCCCCCCCCCCCC)CC1CCCO1` (stereo not drawn) [LG15], the “Luciferase expression as a percentage” value in assay [2] (lipid/DNA 2.5 w/w) stood at 0.7%; in assay [2] (lipid/DNA 5 w/w), 0.8%; in assay [2] (lipid/DNA 10 w/w), 0.5%; in assay [2] (lipid/DNA 15 w/w), 0.6%; in assay [2] (lipid/DNA 20 w/w), 0.7%; in assay [2] (lipid/DNA 25 w/w) it was 0.8%.

As to `CCCCCCCCCCCCCCCOC(=O)CCN(CCC(=O)OCCCCCCCCCCCCCCC)CCN1CCCCC1` [LG82], the “Luciferase expression as a percentage” value is 0.2% in assay [2] (lipid/DNA 2.5 w/w); 0.2% in assay [2] (lipid/DNA 5 w/w); 0.6% in assay [2] (lipid/DNA 10 w/w); 0.8% in assay [2] (lipid/DNA 15 w/w); 0.5% in assay [2] (lipid/DNA 20 w/w); 1.2% in assay [2] (lipid/DNA 25 w/w).

Consider `CCCCCCCCCCOC(=O)CCN(CCN(CCC(=O)OCCCCCCCCCC)C(C)C)C(C)C` [LB62], for which the “Luciferase expression as a percentage” value in assay [2] (lipid/DNA 2.5 w/w), in assay [2] (lipid/DNA 5 w/w), in assay [2] (lipid/DNA 10 w/w), in assay [2] (lipid/DNA 15 w/w), in assay [2] (lipid/DNA 20 w/w) and in assay [2] (lipid/DNA 25 w/w) was 0.1% in each case.

Regarding `CCCCCCCCCCOC(=O)CC[N+](C)(CCC(=O)OCCCCCCCCCC)CC1COC(C)(C)O1.[I-]` (stereo not drawn) [QB7], the “Luciferase expression as a percentage” value in assay [2] (lipid/DNA 2.5 w/w), in assay [2] (lipid/DNA 5 w/w), in assay [2] (lipid/DNA 10 w/w), in assay [2] (lipid/DNA 15 w/w), in assay [2] (lipid/DNA 20 w/w) and in assay [2] (lipid/DNA 25 w/w) was 0.0% in each case.

For `CCCCCCCCCCCCCCOC(=O)CCN(CCC(=O)OCCCCCCCCCCCCCC)CCN1CCCC1` [LF76], the “Luciferase expression as a percentage” value is 1.7% in assay [2] (lipid/DNA 2.5 w/w); 5.6% in assay [2] (lipid/DNA 5 w/w); 9.8% in assay [2] (lipid/DNA 10 w/w); 24.3% in assay [2] (lipid/DNA 15 w/w); 22.2% in assay [2] (lipid/DNA 20 w/w); 19.5% in assay [2] (lipid/DNA 25 w/w).

As to `CCCCCCCCCCCCCCCCCCOC(=O)CCN(CCC(=O)OCCCCCCCCCCCCCCCCCC)C[C@H](C)O` [LH22], the “Luciferase expression as a percentage” value in assay [2] (lipid/DNA 2.5 w/w), in assay [2] (lipid/DNA 5 w/w), in assay [2] (lipid/DNA 10 w/w), in assay [2] (lipid/DNA 15 w/w), in assay [2] (lipid/DNA 20 w/w) and in assay [2] (lipid/DNA 25 w/w) was 0.0% each time.

For the molecule `CCCCCCCCCCCCCCOC(=O)CCN(CCC(=O)OCCCCCCCCCCCCCC)CC1CCCO1` (stereo not drawn) [LF15], the “Luciferase expression as a percentage” value in assay [2] (lipid/DNA 2.5 w/w) was found to be 0.1%; in assay [2] (lipid/DNA 5 w/w) it was 0.1%; in assay [2] (lipid/DNA 10 w/w), 0.0%; in assay [2] (lipid/DNA 15 w/w), 0.0%; in assay [2] (lipid/DNA 20 w/w) it was 0.1%; in assay [2] (lipid/DNA 25 w/w) it was 0.1%.
